Assay results published in US6893821B2, “Agents that modulate DNA-PK activity and methods of use thereof” (The Regents of the University of California, priority 2000, dated 2005).
“Also recorded” adds a separate entry of the source.

Tests used:
[1] = target: T1, DNA-PK (Homo sapiens, UniProt P12956+P13010+P78527); assay: In vitro DNA-PK phosphorylation assay (affinity-purified DNA-PK, GST-p53 (1-70) substrate); assay type: biochemical; conditions: 30° C., 30 minutes; ps-ss ODNs 0-1, po-ISS-ODN 20-100, po-ds-ISS-ODN 0-10, genomic DNAs 1-5 ng/reaction
T1 construct: purchased Promega
Method: The in vitro DNA-PK phosphorylation assay was performed according to Hammarsten et al. (2000), supra, with modification. Briefly, affinity-purified DNA-PK (Promega, Mo.) was incubated with various DNA preparations (described below), 0.5 μg of GST-p53 (1-70) and 3.3 μCi of γ-^32p-ATP in a 20 μl reaction buffer (10 mM Tris-Cl, 5 mM MgCl2, 0.3 mM EDTA and 10 μM ATP) at 30° C. for 30 minutes. The reaction was stopped by addition of 4× loading buffer. The samples were boiled, loaded on 9% SDS-PAGE, transferred onto a PVDF membrane and visualized by autoradiography.
The ODNs (ps-ss) used include an ISS-ODN with an active CpG motif (AACGTT), a methylated ISS-ODN at the ^5C of the CpG dinucleotide (AA*CGTT) and various control ODNs. These ODNs were incubated at concentrations of 0, 0.1, 0.3, or 1 ng/reaction. The po-ISS-ODN was incubated at concentration of 20, 50 or 100 ng/reaction. The po-ds-ISS-ODN was incubated at concentration of 0, 0.5, 1, 2, 5 or 10 ng/reaction. The bacterial or calf thymus DNAs were each incubated at concentration of 1, 2 or 5 ng/reaction. Electrophoretic gel mobility shift assay (EMSA) was performed as previously described. Chu et al. (1999) Immunity 11:721-731; and Li et al., 1999, supra). In vitro IKK kinase assays were performed using purified IKK derived from Sf9 insect cell lysates as was previously described. Zandi et al. (1998) Science 281:1360-1363.

[2] = target: T2, Ku antigen (Ku70/Ku80 heterodimer) (Mus musculus, UniProt P23475+P27641); assay: EMSA inhibition study: cold ODN vs [32P]-labeled ds-ISS-ODN binding to Ku (affinity column fraction 20); conditions: for displacement of the interaction of [32P]-labeled ds-ISS-ODN with Ku: unlabeled ODN 0.1, 0.2 and 0.4 μg, 10 μg of fraction 20
T2 construct: from tissue; host or cells: mouse liver (BALB/c)
T2 sequence (P23475 2-608 limits assumed): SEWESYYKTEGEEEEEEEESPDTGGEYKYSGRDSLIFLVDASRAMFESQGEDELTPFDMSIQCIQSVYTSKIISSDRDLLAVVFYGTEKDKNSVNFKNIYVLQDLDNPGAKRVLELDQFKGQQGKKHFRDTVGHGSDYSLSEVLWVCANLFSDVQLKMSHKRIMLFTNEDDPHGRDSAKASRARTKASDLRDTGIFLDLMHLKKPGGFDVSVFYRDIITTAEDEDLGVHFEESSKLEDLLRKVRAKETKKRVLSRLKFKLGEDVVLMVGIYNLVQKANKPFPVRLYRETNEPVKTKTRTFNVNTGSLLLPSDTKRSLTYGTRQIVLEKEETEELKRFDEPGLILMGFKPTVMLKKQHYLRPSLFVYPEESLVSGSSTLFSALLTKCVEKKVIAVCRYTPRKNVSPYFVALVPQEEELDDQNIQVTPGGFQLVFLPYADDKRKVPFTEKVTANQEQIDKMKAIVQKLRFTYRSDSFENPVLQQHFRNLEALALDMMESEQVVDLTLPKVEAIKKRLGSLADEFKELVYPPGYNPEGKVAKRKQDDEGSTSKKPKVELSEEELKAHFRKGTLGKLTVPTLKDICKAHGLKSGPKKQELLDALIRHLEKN
T2 sequence (P27641 whole entry): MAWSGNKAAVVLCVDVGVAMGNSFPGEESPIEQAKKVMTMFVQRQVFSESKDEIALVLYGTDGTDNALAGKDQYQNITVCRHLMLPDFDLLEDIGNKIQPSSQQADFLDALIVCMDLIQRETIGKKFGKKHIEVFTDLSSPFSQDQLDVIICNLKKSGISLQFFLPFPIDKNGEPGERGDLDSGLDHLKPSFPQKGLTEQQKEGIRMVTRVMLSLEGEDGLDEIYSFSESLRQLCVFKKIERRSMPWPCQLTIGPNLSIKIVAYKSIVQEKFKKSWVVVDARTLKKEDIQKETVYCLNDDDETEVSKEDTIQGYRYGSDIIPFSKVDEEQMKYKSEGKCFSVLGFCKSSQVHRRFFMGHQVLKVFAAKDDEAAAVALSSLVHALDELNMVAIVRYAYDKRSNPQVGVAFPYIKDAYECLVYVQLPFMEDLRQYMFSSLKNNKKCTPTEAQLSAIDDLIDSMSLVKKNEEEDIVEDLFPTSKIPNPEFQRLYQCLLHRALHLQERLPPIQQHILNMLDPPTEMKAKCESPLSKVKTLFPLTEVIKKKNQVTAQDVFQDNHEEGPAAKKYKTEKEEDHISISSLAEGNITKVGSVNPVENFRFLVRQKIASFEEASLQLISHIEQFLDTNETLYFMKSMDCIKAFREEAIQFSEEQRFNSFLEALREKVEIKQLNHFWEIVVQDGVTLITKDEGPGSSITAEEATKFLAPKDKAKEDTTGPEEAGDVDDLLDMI
Method: Purification of the ISS binding protein was accomplished by sequential ion exchange, heparin and ISS-ODN affinity chromatography, as follows. Due to the relative small tissue weight per spleen, liver lysate was used after confirming its reactivity to in vivo ISS injection, as described above. Crude liver extracts from 220 mice (BALB/c, Jackson Lab., Bar Harbour, Me.) or 15 New Zealand White rabbits (Simunek, Vista, Calif.) were prepared in homogenization buffer (20 mM HEPES, pH 7.6, 250 mM KCl, 0.1 mM EDTA, 0.5 mM EGTA, 20% glycerol) with 250 mM KCl and protease and phosphatase inhibitors and then centrifuged at 100,000×g for 1.5 hours at 4° C. The supernatant (400 ml) was filtered and loaded onto a Porous 20 QE column (17 ml, Pharmacia). Two μl (10 μg) of each fraction were used in a gel retardation assay to identify the location of proteins containing DNA binding activity using [^32P]-labeled ds-ISS-ODN as a probe. Fractions containing ISS-ODN binding activity were pooled (450 ml), buffered exchanged to low salt (50 mM KCl) and loaded onto a Heparin column (2 ml). The active fractions were subsequently loaded onto a 2 ml ds-ISS-ODN affinity column [CNBr-activated Sepharose 4B (Pharmacia) coupled to 320 μg of ds-ISS-ODNs with the sequence 5′-[…]-3′; SEQ ID NO: 21]. The column was washed with 8 ml of homogenization buffer containing 50 mM KCl and the bound proteins were eluted with a 20 ml linear gradient of 50 mM to 1.55 M KCl. One-ml fractions were collected and 2 μl of each were used to test for DNA binding activity. The active fractions were concentrated, separated by SDS-PAGE and stained with Coomassie Blue. The appearance of two bands with estimated molecular weights of 70 KDa and 80 KDa correlated with the DNA binding activity. Sequence analysis (Harvard Microsequencing Facility) of peptides derived from the two bands identified Ku70 and Ku80, respectively.
Mouse liver extracts were purified through anion (QE), heparin and ISS-based affinity chromatography, as described above. Two μl of each fraction (10 μg) were incubated with [^32 P]-labeled ds-ISS-ODN at 4° C. for 30 minutes. The samples were separated on a 5% acrylamide gel and the protein-DNA complexes were detected by autoradiography. […] The active fractions were separated by sodium dodecyl sulfate-polyacrylamide gel electrophoresis (SDS-PAGE), stained with Coomassie blue and micro-sequenced.
To verify the binding specificity of the Ku protein to ISS-ODN, inhibition studies were performed using cold ss or ds ISS or mutated (M, i.e., control) ODNs. Ten μg of fraction 20 from the affinity column were incubated with [^32P]-labeled ISS-ODN in the presence of unlabeled (0.1, 0.2 and 0.4 μg, respectively) ss-ISS-ODN (lanes 3-5), ds-ISS-ODN (lanes 7-9), ss-M-ODN (lanes 11-13) or ds-M-ODN (lanes 15-17).

[3] = test system: IL-6, IL-12 message in liver; assay: RT-PCR for IL-6 and IL-12 message in livers of mice injected i.v. with ODN; assay type: in vivo; conditions: mice i.v. 200 μl (1 μg/μl in PBS) of ss or ds ODN; 2.5 hours
[4] = test system: IκB kinase (IKK) complex; assay: IKK kinase assay on IKK complex immunoprecipitated from treated BMDM (IκBα N-terminus substrate); assay type: cell-based, mice
Method: Kinase assays and immunoblotting were performed according to Li et al. ((1999) J. Exp. Med. 189:1839-1845). Briefly, BMDM were treated with ISS-ODN (5 μg/ml), M-ODN (5 μg/ml) on ps and po backbones as indicated, LPS-free bacterial DNA or methylated bacterial DNA (5 μg/ml), LPS-free calf thymus DNA (5 μg/ml), LPS (10 μg/ml) or TNFα (10 ng/ml) for the indicated time periods. Cell lysates were prepared and normalized by immunoblotting (IB) with anti-IKKα polyclonal antibodies (Santa Cruz, Santa Cruz Biotech Inc., Calif.), anti-IKKβ polyclonal antbodies (Santa Cruz) or anti-DNA-PKcs monoclonal antibodies (NeoMarker, Calif.). IκB kinase (IKK) complex or DNA-PK complex from 100 μg of the lysates were immunoprecipitated by anti-IKKα or by anti-DNA-PKcs antibodies. The kinase activities (KA) were determined by a kinase assay using the N-terminus of IκBα (for IKK) or the N-terminus of p53 (for DNA-PK) as a substrate as previously described. Wang et al. (1992) Proc. Natl. Acad. Sci. USA 89:4231-4235; Li et al.(1999), supra; and Hammarsten et al. (2000) J. Biol. Chem. 275:1541-1545.

[5] = test system: bone marrow derived macrophages (BMDM); assay: IL-6 and IL-12 levels in BMDM culture supernatants by ELISA; assay type: cell-based, mice; conditions: BMDM
Method: Ku70^−/− and Ku80^−/− mice and their wild-type (wt) control on the 129 genetic background were generated by Dr. G. Li and bred at Memorial Sloan-Kettering Cancer Center (MSKCC), New York, N.Y. BMDM from wt, Ku70^−/− and Ku80^−/− mice (MSKCC) were prepared as was previously published (Martin-Orozco et al. (1999) Int. Immunol. 11:1111), and maintained in DMEM with 10% FBS, antibiotics and 20% L-cell medium and cultured for about 10 days to allow them to mature. BMDM were seeded (2.5×10^5/well in triplicate) on 96-well plates and treated with LPS (10 μg/ml), ISS-ODN (5 μg/ml) or M-ODN (5 μg/ml).
BMDM (2.5×10^5/well) from wt, or Ku70^−/− and Ku80^−/− mice were treated with LPS (1 μg/ml), ISS-ODN (5 μg/ml) or M-ODN (5 μg/ml) for 24 hours. IL-6 (A) or IL-12 (B) levels in the supernatants were determined by ELISA. Results are means±S.D, of 5 separate experiments for wt and Ku70^−/− and 3 separate experiments for Ku80^−/− mice. (C) BMDM were incubated with LPS (10 μg/ml) or ISS-ODN (5 μg/ml) for 6.5 hours. Total RNA was isolated and analyzed for the presence of IL-6, IL-12 and GAPDH messages by a Northern blot assay, as described in Example 1. Results are means±S.D. of 5 separate experiments for wt and Ku70^−/− and 3 separate experiments for Ku80^−/− mice.
DNA-PKcs^−/− and their wt control mice on the 129 genetic background were generated by Dr. G. C. Li and bred at Memorial Sloan-Kettering Cancer Center, New York, N.Y. IKKβ^−/− Tnfr1^−/− mice were generated by Drs. Z-W Li and Karin M. ATM^−/− mice on the C57BL/6 background were generated and bred by Dr. Y. Xu (UCSD) as was previously described (Xu et al.(1996) Genes Dev. 10:2411-2422) while their wild-type (wt) control were purchased from Jackson Laboratories (Bar Harbor, Me.). BMDMs from wt, DNA-PKcs^−/− mice, IKKβ^−/− Tnfr1^−/− and ATM^−/− mice were prepared as was previously published (Martin-Orozco et al. (1999) Intl. Immunol. 11:1111-1118), maintained in DMEM with 10% FBS, antibiotics and 20% L-cell medium and cultured for 7-10 days to allow them to mature. Prior to use BMDM were seeded (2.5×10^5/well in triplicate) in 96-well plates and than treated with LPS (1 μg/ml), ISS-ODN (5 μg/ml) or M-ODN (5 μg/ml), po-ISS-ODN (10 μg/ml) or po-ds-ISS-ODN (10 μg/ml), LPS-free, ultra pure bacterial DNA (E. coli, Sigma) (15 μg/ml) or methylated bacterial DNA or LPS-free, ultra pure calf thymus DNA (Sigma) (15 μg/ml). Methylation of bacterial DNA was performed by SssI methylase (Biolab, Boston, Mass.) (15 μg/ml) following manufacturer's instruction. Where indicated the PI3K inhibitor wortmannin (Wm), at various concentrations, was added to ISS-ODN or LPS stimulated BMDMs. After 24 hours in culture, the supernatants were collected and assayed for IL-6 and IL-12 levels by ELISA kits (PharMingen, San Diego, Calif.).

## 5′-TGACTGTGAA*CGTTAGAGATGA-3′ (DNA TGACTGTGAACGTTAGAGATGA; 5-methylcytosine, chemistry not fully specified) [Methylated ISS-ODN, *C denotes 5-methyl C, reference compound]
[1]
  DNA-PK activity in vitro (phosphorylation of the N-terminal portion of p53): weaker DNA-PK activators than their unmethylated counterparts

## 5′-TGACTGTGAACCTTAGAGATGA-3′ [ds-M-ODN, reference compound]
[2]
  displacement of the interaction of [32P]-labeled ds-ISS-ODN with Ku: did not have any significant effect

## 5′-TGACTGTGAACGTTCGAGATGA-3′ [ds-ISS-ODN]
[2]
  displacement of the interaction of [32P]-labeled ds-ISS-ODN with Ku: displaced the interaction

## 5′-TGACTGTGAAGGTTAGAGATGA-3′ [M-ODN, reference compound]
[3]
  IL-6 and IL-12 message in liver (RT-PCR): did not display any immune stimulation; also recorded: lack of induction
[2]
  interaction of Ku with ODN: lack of interaction
[4]; wt BMDM
  IKK activation: little increase in IKK activity
[4]; wt BMDM (FIG. 5B)
  IKK activation, concentration series: little IKK activation

## O=c1cc(N2CCOCC2)oc2c(-c3ccccc3)cccc12 [Ly, Ly294002, reference compound]
[5]
  inhibition of LPS-induced secretion of IL-6 and IL-12: did not inhibit

## COC[C@H]1OC(=O)c2coc3c2[C@@]1(C)C1=C(C3=O)[C@@H]2CCC(=O)[C@@]2(C)C[C@H]1OC(C)=O [Wm, wortmannin, reference compound]
[5]
  inhibition of LPS-induced secretion of IL-6 and IL-12: did not inhibit
[4]; Wm at 1000 nM
  effect on IKK activation by TNFα: no effect

## TNFα [reference compound]
[4]; DNA-PKcs-/- BMDM as compared to wt
  IKK activation: fully responsive
